Experimental findings from patent publication US20130005811A1, “ANTIMICROBIAL TREATMENT FOR SEEDS AND SPROUTS” (priority 2010, published 2013) are described below.

For one data set, the system named is watermelon seeds. Nature of the data set: Germination of treated watermelon seeds. The note with it: 0.05% SDS alone (negative control).
The subject of data set [1] is Clavibacter michiganenses subsp. michiganenses (CMM). Conditions: 0.5% levulinic acid, 30° C., 30 hr, OD 600 nm. As for the experimental part:
(§1) The effect of levulinic acid on in vitro growth of a range of phytobacteria was determined using a Microbiology Reader BioscreenC (Transgalactic Ltd.; Helsinki, Finland) according to manufacturer's instructions. Briefly, inoculum was generated by transferring one colony of each bacterium from a three-day-old nutrient agar culture (Difco) to 5 ml of nutrient broth. Broth cultures were incubated overnight at 30° C. with continuous agitation and cells from 1 ml of broth were harvested by centrifugation (16,200×g) for 3 min and adjusted to about 3.0×10^8 CFU/ml (ODA600 nm=0.3) spectrophotometrically (Spectronic 20, Bausch and Lomb, Rochester, N.Y.). Cell suspensions were ten-fold serially diluted to desired concentrations, and 10 μl of each suspension was transferred to a single well in a honeycomb plate (Oy Growth Curves AB Ltd., Helsinki, Finland) containing 190 μl of nutrient broth amended with 3%, 1% or 0.5% levulinic acid. This yielded a starting suspension of about 1.5×10^4 CFU/ml. The microplate containing ten replicates of each bacterium×levulinic acid concentration treatment was incubated at 30° C. with continuous agitation in a BioscreenC MBR incubator/reader. Optical density measurements of each well were taken at a wavelength of 600 nm at 30 min intervals for 30 hr.

Data set [2] deals with Xanthomonas campestris pv. vesicatoria (XCV). As for the experimental part:
(§2) The ability of combinations of levulinic acid and SDS to kill a range of plant pathogenic bacteria in vitro was tested. Nutrient broth liquid cultures were supplemented with 3%, 1%, or 0.5% levulinic acid. A range of gram-negative plant pathogenic bacteria was screened, including Acidovorax avenae subsp. citrulli, Erwinia (Pectobacterium) carotovora subsp. carotovora, Xanthomonas campestris pv. campestris, Xanthomonas axonopodis pv. vesicatoria and Pantoea ananatis subsp. ananatis. […] Each bacterium was evaluated 10 times and the experiment was repeated.
as §1

The test system of a further data set is Pantoea ananatis (PNA). Here is the method:
as §2, §1

For data set [3], the system named is Xanthomonas campestris pv. campestris (XCC). As for the experimental part:
as §2, §1

The test system of data set [4] is Acidovorax avenae subsp. citrulli (Aac). Here is the method: as §2, §1
Data set [5] relates to Erwinia carotovora subsp. carotovora (ECC). Here is the method:
as §2, §1

Where [6] appears, read: 0.5% levulinic acid, 30° C., 30 hr, OD 600 nm.

`CCCCCCCCCCCCOS(=O)(=O)[O-].[Na+]` [0.05% SDS, sodium dodecyl sulfate] registered a Germination percentage with watermelon seeds of 89.25%.

`CC(=O)CCC(=O)O` [levulinic acid, Levulinic acid]: the “In vitro growth in nutrient broth” value (in data set [1]; in data set [2] (setting [6]); with Pantoea ananatis (PNA) (setting [6]); in data set [3] (setting [6]); in data set [4] (setting [6]); in data set [5] (setting [6])) was “prevented the growth” throughout. The “Kind of action (broth cultures plated after incubation)” value (in data set [2]; with Pantoea ananatis (PNA); in data set [3]; in data set [4]; in data set [5]) was “bactericidal rather than bacteristatic” throughout. In addition, the “Number of viable cells in the liquid broth” value (in data set [2] (0.5% levulinic acid); in the data set with Pantoea ananatis (PNA) (0.5% levulinic acid); in data set [3] (0.5% levulinic acid); in data set [4] (0.5% levulinic acid); in data set [5] (0.5% levulinic acid)) was “killed the pathogens” each time.
